Biological target: T1, Angiotensin II receptor (AT-1) type-1 (Rattus norvegicus, UniProt P29089+P25095)
T1 sequence (P29089 whole entry): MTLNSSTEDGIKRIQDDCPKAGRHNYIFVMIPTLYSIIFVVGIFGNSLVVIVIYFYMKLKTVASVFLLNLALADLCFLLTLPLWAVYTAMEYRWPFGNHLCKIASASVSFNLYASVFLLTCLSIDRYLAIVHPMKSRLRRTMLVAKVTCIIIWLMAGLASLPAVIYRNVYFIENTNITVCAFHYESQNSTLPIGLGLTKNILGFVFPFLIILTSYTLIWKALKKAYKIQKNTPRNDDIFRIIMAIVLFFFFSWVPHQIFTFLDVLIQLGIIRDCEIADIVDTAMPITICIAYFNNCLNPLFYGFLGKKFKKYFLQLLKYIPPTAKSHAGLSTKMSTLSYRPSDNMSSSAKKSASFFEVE
T1 sequence (P25095 whole entry): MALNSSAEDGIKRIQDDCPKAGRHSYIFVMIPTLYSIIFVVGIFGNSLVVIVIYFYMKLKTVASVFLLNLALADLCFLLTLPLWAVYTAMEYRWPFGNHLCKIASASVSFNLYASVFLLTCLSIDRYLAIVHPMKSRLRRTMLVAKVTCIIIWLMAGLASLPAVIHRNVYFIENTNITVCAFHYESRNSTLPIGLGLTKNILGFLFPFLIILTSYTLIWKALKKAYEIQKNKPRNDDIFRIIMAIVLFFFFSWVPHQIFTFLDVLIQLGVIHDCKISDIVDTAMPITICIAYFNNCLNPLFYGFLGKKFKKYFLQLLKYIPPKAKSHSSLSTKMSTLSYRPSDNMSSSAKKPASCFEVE
Experiment: Antagonist activity at AT1 receptor in Rattus norvegicus (rat) liver

For `CCCCn1nc(C)c(C(=O)O)c1Cc1ccc(-c2ccccc2-c2nn[nH]n2)cc1`, which pIC50 is on record?
The pIC50 was 8.567.

For `CCCCn1nc(C)c(C(=O)O)c1Cc1ccc(-c2ccccc2S(=O)(=O)Nc2ccccc2)cc1`, which IC50 is on record?
Its IC50 is 12 nM.

What about the pIC50 of the same molecule?
The pIC50 was 7.92.

Which IC50 does the source give for `CCCn1nc(C2CC2)c(C(=O)O)c1Cc1ccc(-c2ccccc2S(=O)(=O)Nc2ccccc2)cc1` here?
Its IC50 is 18 nM.

What about the pIC50 of the same molecule?
The pIC50 was 7.744.

Which results are given for `CCCn1nc(C(C)C)c(C(=O)O)c1Cc1ccc(-c2ccccc2NS(=O)(=O)C(F)(F)F)cc1`?
IC50: 74 nM; pIC50: 7.13

`Cc1nn(-c2ccccc2)c(Cc2ccc(-c3ccccc3-c3nn[nH]n3)cc2)c1C(=O)O` was tested. Which pIC50 did it give?
Its pIC50 is 7.102.

What does the source list for `CCCCOC(=O)NS(=O)(=O)c1ccccc1-c1ccc(Cc2c(C(=O)O)cnn2CCCC)cc1`?
IC50: 13 nM; pIC50: 7.522

How did the IC50 turn out when `CCCCc1nn(CCC)c(Cc2ccc(-c3ccccc3-c3nnn[nH]3)cc2)c1C(=O)O` was run?
Its IC50 is 3 nM.

What about the pIC50 of the same molecule?
Its pIC50 is 8.522.

`CCCn1nc(C(C)C)c(C(=O)O)c1Cc1ccc(-c2ccccc2C(=O)O)cc1` was tested. Which IC50 did it give?
The IC50 was 130 nM.

And the pIC50?
The pIC50 was 6.886.

`CCCn1nc(C2CC2)c(C(N)=O)c1Cc1ccc(-c2ccccc2S(=O)(=O)Nc2ccccc2)cc1` was tested. Which IC50 did it give?
Its IC50 is 7.4 nM.

What about the pIC50 of the same molecule?
Its pIC50 is 8.13.
